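Grown in 96-well plates, cells were treated for 48 hours with each compound at five concentrations. Insufficient inhibition: endpoint recorded as highest concentration tested. GI50 = concentration required for 50% inhibition of growth. At the TGI there is no net growth.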
Tests used:
Assay in all cases: NCI tumour cell line growth inhibition, 48 h
MOLT-4 leukemia = tested on: MOLT-4 leukemia
MALME-3M melanoma = tested on: MALME-3M melanoma
HOP-62 NSCLC = tested on: HOP-62 NSCLC
SN12C renal = tested on: SN12C renal
HOP-92 NSCLC = tested on: HOP-92 NSCLC
SF-295 CNS = tested on: SF-295 CNS
KM12 colon = tested on: KM12 colon
NCI/ADR-RES ovarian = tested on: NCI/ADR-RES ovarian
UACC-257 melanoma = tested on: UACC-257 melanoma
NCI-H23 lung = tested on: NCI-H23 lung
SK-MEL-2 melanoma = tested on: SK-MEL-2 melanoma
SW-620 colon = tested on: SW-620 colon
TK-10 renal = tested on: TK-10 renal
SR leukemia = tested on: SR leukemia
NCI-H460 lung = tested on: NCI-H460 lung
HL-60(TB) leukemia = tested on: HL-60(TB) leukemia
M14 melanoma = tested on: M14 melanoma
OVCAR-4 ovarian = tested on: OVCAR-4 ovarian
SK-MEL-5 melanoma = tested on: SK-MEL-5 melanoma
MCF7 breast = tested on: MCF7 breast
HCC-2998 colon = tested on: HCC-2998 colon
DU-145 prostate = tested on: DU-145 prostate
SF-268 CNS = tested on: SF-268 CNS
K-562 leukemia = tested on: K-562 leukemia
NCI-H226 lung = tested on: NCI-H226 lung
SK-OV-3 ovarian = tested on: SK-OV-3 ovarian
HS 578T breast = tested on: HS 578T breast
PC-3 prostate = tested on: PC-3 prostate
MDA-MB-231 breast = tested on: MDA-MB-231 breast
LOX IMVI melanoma = tested on: LOX IMVI melanoma
COLO 205 colon = tested on: COLO 205 colon
CAKI-1 renal = tested on: CAKI-1 renal
A549 NSCLC = tested on: A549 NSCLC
HCT-15 colon = tested on: HCT-15 colon
ACHN renal = tested on: ACHN renal
NCI-H522 lung = tested on: NCI-H522 lung
HT29 colon = tested on: HT29 colon
UO-31 renal = tested on: UO-31 renal
OVCAR-3 ovarian = tested on: OVCAR-3 ovarian
T-47D breast = tested on: T-47D breast
OVCAR-8 ovarian = tested on: OVCAR-8 ovarian
OVCAR-5 ovarian = tested on: OVCAR-5 ovarian
786-0 renal = tested on: 786-0 renal
MDA-MB-435 = tested on: MDA-MB-435
A498 renal = tested on: A498 renal
CCRF-CEM leukemia = tested on: CCRF-CEM leukemia
RPMI-8226 leukemia = tested on: RPMI-8226 leukemia
UACC-62 melanoma = tested on: UACC-62 melanoma
SF-539 CNS = tested on: SF-539 CNS
EKVX NSCLC = tested on: EKVX NSCLC
HCT-116 colon = tested on: HCT-116 colon
U251 CNS = tested on: U251 CNS
BT-549 breast = tested on: BT-549 breast
SNB-19 CNS = tested on: SNB-19 CNS
SK-MEL-28 melanoma = tested on: SK-MEL-28 melanoma
SNB-75 CNS = tested on: SNB-75 CNS
IGROV1 ovarian = tested on: IGROV1 ovarian

SMILES: O=C(CCCCCCNC(=O)C(O)(O)C(F)(F)F)Nc1nc2ccccc2s1
- GI50 (MOLT-4 leukemia): 1.21 µM
- TGI (MOLT-4 leukemia): > 29.8 µM
- GI50 (MALME-3M melanoma): 1.49 µM
- TGI (MALME-3M melanoma): 13 µM
- GI50 (HOP-62 NSCLC): 4.29 µM
- TGI (HOP-62 NSCLC): > 29.8 µM
- GI50 (SN12C renal): 6.39 µM
- TGI (SN12C renal): > 29.8 µM
- GI50 (HOP-92 NSCLC): 0.751 µM
- TGI (HOP-92 NSCLC): 8.28 µM
- GI50 (SF-295 CNS): 3.43 µM
- TGI (SF-295 CNS): 8.88 µM
- GI50 (KM12 colon): 5.84 µM
- TGI (KM12 colon): > 29.8 µM
- GI50 (NCI/ADR-RES ovarian): 3.4 µM
- TGI (NCI/ADR-RES ovarian): 16.7 µM
- GI50 (UACC-257 melanoma): 6.56 µM
- TGI (UACC-257 melanoma): > 29.8 µM
- GI50 (NCI-H23 lung): 4.94 µM
- TGI (NCI-H23 lung): 25.9 µM
- GI50 (SK-MEL-2 melanoma): 4.43 µM
- TGI (SK-MEL-2 melanoma): 21 µM
- GI50 (SW-620 colon): 2.08 µM
- TGI (SW-620 colon): 11 µM
- GI50 (TK-10 renal): 1.17 µM
- TGI (TK-10 renal): > 29.8 µM
- GI50 (SR leukemia): 1.23 µM
- TGI (SR leukemia): > 29.8 µM
- GI50 (NCI-H460 lung): 2.98 µM
- TGI (NCI-H460 lung): > 29.8 µM
- GI50 (HL-60(TB) leukemia): 1.85 µM
- TGI (HL-60(TB) leukemia): > 29.8 µM
- GI50 (M14 melanoma): 6.4 µM
- TGI (M14 melanoma): > 29.8 µM
- GI50 (OVCAR-4 ovarian): 11 µM
- TGI (OVCAR-4 ovarian): > 29.8 µM
- GI50 (SK-MEL-5 melanoma): 4.08 µM
- TGI (SK-MEL-5 melanoma): 8.13 µM
- GI50 (MCF7 breast): 6.59 µM
- TGI (MCF7 breast): > 29.8 µM
- GI50 (HCC-2998 colon): 5.75 µM
- TGI (HCC-2998 colon): 16.8 µM
- GI50 (DU-145 prostate): 4.99 µM
- TGI (DU-145 prostate): > 29.8 µM
- GI50 (SF-268 CNS): 7.69 µM
- TGI (SF-268 CNS): > 29.8 µM
- GI50 (K-562 leukemia): 1.7 µM
- TGI (K-562 leukemia): > 29.8 µM
- GI50 (NCI-H226 lung): 9.61 µM
- TGI (NCI-H226 lung): > 29.8 µM
- GI50 (SK-OV-3 ovarian): 2.27 µM
- TGI (SK-OV-3 ovarian): 12.6 µM
- GI50 (HS 578T breast): 3.57 µM
- TGI (HS 578T breast): > 29.8 µM
- GI50 (PC-3 prostate): 5.01 µM
- TGI (PC-3 prostate): > 29.8 µM
- GI50 (MDA-MB-231 breast): 3.59 µM
- TGI (MDA-MB-231 breast): 22.1 µM
- GI50 (LOX IMVI melanoma): 3.41 µM
- TGI (LOX IMVI melanoma): 7.75 µM
- GI50 (COLO 205 colon): 3.17 µM
- TGI (COLO 205 colon): 9.45 µM
- GI50 (CAKI-1 renal): 6.99 µM
- TGI (CAKI-1 renal): > 29.8 µM
- GI50 (A549 NSCLC): 7.99 µM
- TGI (A549 NSCLC): > 29.8 µM
- GI50 (HCT-15 colon): 5.8 µM
- TGI (HCT-15 colon): 19.1 µM
- GI50 (ACHN renal): 3.59 µM
- TGI (ACHN renal): 17.3 µM
- GI50 (NCI-H522 lung): 2.76 µM
- TGI (NCI-H522 lung): 14.7 µM
- GI50 (HT29 colon): 3.75 µM
- TGI (HT29 colon): > 29.8 µM
- GI50 (UO-31 renal): 2.01 µM
- TGI (UO-31 renal): 15.9 µM
- GI50 (OVCAR-3 ovarian): 3.17 µM
- TGI (OVCAR-3 ovarian): 8.39 µM
- GI50 (T-47D breast): 2.24 µM
- TGI (T-47D breast): 22.8 µM
- GI50 (OVCAR-8 ovarian): 2.86 µM
- TGI (OVCAR-8 ovarian): > 29.8 µM
- GI50 (OVCAR-5 ovarian): 2.33 µM
- TGI (OVCAR-5 ovarian): 15 µM
- GI50 (786-0 renal): 6.4 µM
- TGI (786-0 renal): > 29.8 µM
- GI50 (MDA-MB-435): 4.36 µM
- TGI (MDA-MB-435): 23.5 µM
- GI50 (A498 renal): 1.51 µM
- TGI (A498 renal): 12.5 µM
- GI50 (CCRF-CEM leukemia): 2.01 µM
- TGI (CCRF-CEM leukemia): > 29.8 µM
- GI50 (RPMI-8226 leukemia): 2.73 µM
- TGI (RPMI-8226 leukemia): > 29.8 µM
- GI50 (UACC-62 melanoma): 1.61 µM
- TGI (UACC-62 melanoma): 6.76 µM
- GI50 (SF-539 CNS): 6.56 µM
- TGI (SF-539 CNS): > 29.8 µM
- GI50 (EKVX NSCLC): 6.39 µM
- TGI (EKVX NSCLC): > 29.8 µM
- GI50 (HCT-116 colon): 1.23 µM
- TGI (HCT-116 colon): > 29.8 µM
- GI50 (U251 CNS): 4.32 µM
- TGI (U251 CNS): 25.5 µM
- GI50 (BT-549 breast): 7.06 µM
- TGI (BT-549 breast): > 29.8 µM
- GI50 (SNB-19 CNS): 6.49 µM
- TGI (SNB-19 CNS): > 29.8 µM
- GI50 (SK-MEL-28 melanoma): 3.76 µM
- TGI (SK-MEL-28 melanoma): > 29.8 µM
- GI50 (SNB-75 CNS): 1.67 µM
- TGI (SNB-75 CNS): > 29.8 µM
- GI50 (IGROV1 ovarian): 4.87 µM
- TGI (IGROV1 ovarian): 16.4 µM

Reference: PubChem BioAssay (NCI)
